The subject of data set [1] is mice exposed to total body irradiation. The source says: FIG. 16 is set of bar graphs showing the hematocrit or cell counts of different lineages of blood cells from mice 143-242 days following exposure to a lethal dose (7.5 gray (Gy)) or sub-lethal dose (6.5 Gy) of total body irradiation (TBI). Data for mice treated with 6-acetyl-8-cyclopentyl-5-methyl-2-(5-piperazin-1-yl-pyridin-2-ylamino)-8H-pyrido-[2,3-d]pyrimidin-7-one (PD 0332991) prior to 6.5 Gy TBI is shown in the solid bars and data for mice treated with PD 0332991 prior to 7.5 Gy TBI is shown in the stippled bars. […] Myeloid cell count is the sum of granulocytes and monocytes.

A further data set has as its system bone marrow cells. The experiment in a line: Bone marrow cellularity, immunophenotypic frequency, apoptosis and viability. The settings on record: 48 hour treatment. It counts as in vivo, mice. How it is done: For HSPC proliferation experiments, mice received daily oral gavage with PD0332991 for 2 days with 1 mg BrdU intraperitoneal injection every 6 hours for 24 hours prior to sacrifice. BM-MNC harvest and immunophenotyping was performed using RBC lysis, biotin-conjugated Lin-panel incubation (Invitrogen Corporation, Carlsbad, Calif., United States of America), paramagnetic bead-conjugated straptavidin (Miltinyi Biotec, Bergisch Gladbach, Germany) incubation, and magnetic depletion using an AutoMACS (Miltinyi Biotec, Bergisch Gladbach, Germany). At least 2×10^6 Lin-depleted cells per mouse were incubated with fluorescently labeled antibodies against cell surface antigens used to identify hematopoietic progenitor subpopulations as previously described (see Passegue et al., J. Exp. Med., 202, 1599-1611 (2005); and Kiel et al., Cell, 121, 1109-1121 (2005): CD34-FITC, CD16/32-PacificBlue, IL7Ra-PE-Cy5, and cKit-APC-Alexa750 from eBiosciences, Inc. (San Diego, Calif., United States of America); Sca1-PE-Cy7, CD150-PE-Cy5, and CD48-PacificBlue from BioLegend (San Diego, Calif., United States of America); and Aqua Live/Dead viability dye (Invitrogen Corporation, Carlsbad, Calif., United States of America). Streptavidin-PE-TexasRed (Invitrogen Corporation, Carlsbad, Calif., United States of America) was used to confirm efficiency of lineage-depletion. After cell surface staining, cells were fixed, permeabilized, and stained with antibodies against Ki67-FITC, BrdU-APC, and caspase3-PE (BD Biosciences Pharmingen, San Diego, Calif., United States of America).
In all experiments, gating based on isotype controls was used as appropriate. Flow cytometry was performed using a CyAn ADP (Dako, Glostrup, Denmark) and analyzed with FlowJo software (Tree Star, Ashland, Oreg., United States of Ameria). For each bone marrow sample, a minimum of 200,000 cells were analyzed. For cell culture samples, a minimum of 20,000 cells were analyzed.
The effects on immunophenotypic HSPC frequency were validated by other methods.

Data set [2] concerns mice exposed to total body irradiation. The data set is described as follows: Survival after total body irradiation (TBI). It counts as in vivo. From the text:
For TBI experiments, mice were irradiated using a ^137Cs source (AECL Gammacell 40 Irradiator, Atomic Energy of Canada Ltd, Mississauga, Ontario, Canada). Delivered doses were at or near the empirically determined LD90 of 7.5 Gy, consistent with prior studies. See Na Nakorn et al., J. Clin. Invest., 109, 1579-1585 (2002); Herodin et al., Blood, 101, 2609-2616 (2003); Uckun et al., Blood, 75, 638-645 (1990); and Wang et al., Proc. Natl. Acad. Sci., USA, 94, 14590-14595 (1997). Peripheral blood was collected using a tail vein nick for complete blood cells (CBCs) and analyzed with a HemaTrue analyzer (Heska Co., Loveland, Colo., United States of America).
Adult female C57Bl/6 mice were exposed to 6.5, 7.5, or 8.5 Gy with or without PD0332991 treatment and followed for 40 days post-TBI. The LD90 for IR was determined to be about 7.5 Gy. […] See FIGS. 14A for C3H and FIG. 2E for FVB/n. […] It appears that PQ resulting from transient CDK4/6 inhibition around the time of TBI enhances radioresistance in vivo.
More particularly, animals were given a CDK4/6 inhibitor at different times relative to TBI at the LD90. As radioprotection was observed when animals were treated with two doses pre- and one dose post-TBI (see FIGS. 13A-13B), further studies were undertaken to determine which of these doses was most important for radioprotection. Without being bound to any one theory, it appeared that most of the benefit of the treatment schedule was associated PD 0332991 treatment immediately prior to or contemporaneous with TBI. […] Although there are a few known compounds that protect from radiotoxicity when administered prior to IR (i.e. “radioprotectants”) (see Burdelya et al., Science, 320, 226-230 (2008); and Weiss and Landauer, Int J. Radiat. Biol., 85, 539-573 (2009)), previous to the presently disclosed subject matter, no known hematologic “radiomitigants” (i.e., compounds that reduce hematotoxicity when administered many hours after an exposure to TBI) are believed to have been reported.

Data set [3] deals with bone marrow mononuclear cells (BM-MNCs). The experiment in a line: Cobblestone area-forming cell (CAFC) assay. It counts as cell-based, mice. The following applies: daily oral gavage for 2 days prior to bone marrow harvest. Here is the method: CAFCs are per 1×10^5 bone marrow mononuclear cells (BM-MNCs). Error bars are +/− the standard error of the mean of pooled samples measured in duplicate.
Cobblestone Area-forming Cell (CAFC) Assay: The CAFC assay was performed as described previously. See Meng et al., Cancer Res., 63, 5414-5419 (2003). Briefly, bone marrow was harvested from femurs and tibias of mice and centrifuged to purify BM-MNCs. The frequencies of CAFC were determined at weekly intervals (on day 7, 14, and 35). Wells were scored positive if at least one phase-dark hematopoietic clone (containing 5 or more cells) was seen. The frequency of CAFC was then calculated by using Poisson statistics as described.

Setting [4] is: 8.5 Gy TBI, single dose four hours prior to IR.

“Also recorded” adds a separate entry of the source.

On to `CC(=O)c1c(C)c2cnc(Nc3ccc(N4CCNCC4)cn3)nc2n(C2CCCC2)c1=O` [PD0332991, 6-acetyl-8-cyclopentyl-5-methyl-2-(5-piperazin-1-yl-pyridin-2-ylamino)-8H-pyrido-[2,3-d]-pyrimidin-7-one], for which, in data set [1] (6.5 Gy TBI, followed 210-274 days post-TBI), the deaths result is reported as “no deaths”. Further, in data set [1] (7.5 Gy TBI, remaining mice disease free 101-251 days post-TBI), the “deaths among 29 mice surviving acute toxicity” value was “one death of unknown cause at day 99”. For the same compound, in data set [1] (long-term after TBI), the “blood counts on long-term surviving animals vs unirradiated” value was “comparable”. Moreover, the “myeloproliferative disorder or myelodysplasia” value in data set [1] (mouse, in vivo) is on record as “No evidence”. Further, the “HSC and MPP frequencies” value with bone marrow cells was “relative increase; also recorded: relative enrichment”. In addition, in the data set with bone marrow cells, the “Lin− or HSC apoptosis or viability” value is given as “without altering”. For the same compound, the “absolute number of lineage negative cells” value with bone marrow cells is given as “did decrease”. Further, in the data set with bone marrow cells, the “frequency of oligopotent progenitors (Lin−cKit+Sca1−)” value is recorded as “declined”. Besides, the total marrow cellularity result with bone marrow cells is reported as “did not decrease”. For the same compound, the survival entry in data set [2] (6.5 Gy) is “All mice survived”; in data set [2] (7.5 Gy, C57Bl/6, followed 40 days post-TBI), “all treated mice survived”; in data set [2] (7.5 Gy, multiple doses around IR, within 40 days), about 100%; in data set [2] (7.5 Gy, single dose 4 hours prior to IR) it was “Enhanced survival; also recorded: survival similar to animals treated on the multi-dose”; in data set [2] (7.5 Gy, single dose 20 hours after TBI) it was “significantly enhanced”; in data set [2] (7.5 Gy, single time 0 dose) it was “survival similar to animals treated on the multi-dose”. For the same compound, the median survival in data set [2] (setting [4]) is recorded as 19 days. For the same compound, the term survival is given as 13% in data set [2] (setting [4]) and “about 30%” in data set [2] (8.5 Gy TBI, single dose four hours prior to IR, listed as PD 0332991). For the same compound, the “in vivo HSPC number (CAFC)” value in data set [3] is on record as “did not decrease in vivo HSPC number”.

Source of the values: patent publication US20110224221A1, “HEMATOPOIETIC PROTECTION AGAINST IONIZING RADIATION USING SELECTIVE CYCLIN-DEPENDENT KINASE 4/6 INHIBITORS” (priority 2008, published 2011).
